Values quoted from earlier work, collected in patent publication US9072700B2, “Methods of using derivatives of (−)-venlafaxine” (Sunovion Pharmaceuticals Inc., priority 1998, dated 2015).

What was measured:
[1] = test system: norepinephrine synaptosomal uptake; conditions: Howell et al. 1994
[2] = Klamerus et al. 1992
norepinephrine uptake = conditions: in vitro; Muth et al. 1991
dopamine uptake = conditions: in vitro; Muth et al. 1991
serotonin uptake = conditions: Howell et al. 1994

## COc1ccc([C@H](CN(C)C)C2(O)CCCCC2)cc1 [(−) enantiomer]
[1]
  inhibition of norepinephrine synaptosomal uptake, enantiomer comparison: more potent inhibitor

## CN(C)CC(c1ccc(O)cc1)C1(O)CCCCC1 (racemic) [O-desmethylvenlafaxine, (±)-1-[2-(dimethylamino)-1-(4-phenol)ethyl]cyclohexanol]
[2]
  half-life (t½): about 10 hours
[2]; ratio to venlafaxine half-life
  half-life relative to that of venlafaxine: approximately 2.5 times
Norepinephrine uptake
  inhibition of norepinephrine uptake compared with racemic venlafaxine: more potent inhibitor
Dopamine uptake
  inhibition of dopamine uptake compared with racemic venlafaxine: more potent inhibitor

## COc1ccc(C(CN(C)C)C2(O)CCCCC2)cc1 (single isomer, unassigned; (+)) [(+) enantiomer]
Serotonin uptake
  selectivity in inhibiting serotonin uptake, enantiomer comparison: more selective
